PubChem BioAssay AID1259407 (Chemical Carcinogenesis Research Information System (CCRIS), 2018)
Activity calls are given as the source filed them. No rule for the calls is given here.

System: CCRIS mutagenicity, Ames/micronucleus/aberration tests
Assay: CCRIS mutagenicity studies
[1] = Test System: Ames Salmonella typhimurium, Strain/Indicator: TA100, Metabolic Activation: None, Method: Preincubation

**Q.** What does the source list for `CC(C)=CCC1=C(O)c2ccccc2C(=O)C1=O`?
**A.** mutagenic call (Test System: AMES SALMONELLA TYPHIMURIUM, Strain/Indicator: TA97, Metabolic Activation: NONE, Method: PREINCUBATION): inactive; negative; mutagenic call (Test System: AMES SALMONELLA TYPHIMURIUM, Strain/Indicator: TA97, Metabolic Activation: RAT, LIVER, S-9, PHENOBARBITAL AND 5,6-BENZOFLAVONE, Method: PREINCUBATION): inactive; negative; mutagenic call (Test System: AMES SALMONELLA TYPHIMURIUM, Strain/Indicator: TA98, Metabolic Activation: HAMSTER, LIVER, S-9, AROCLOR 1254, Method: STANDARD PLATE): inactive; negative; mutagenic call (Test System: AMES SALMONELLA TYPHIMURIUM, Strain/Indicator: TA98, Metabolic Activation: NONE, Method: PREINCUBATION): inactive; negative; mutagenic call (Test System: AMES SALMONELLA TYPHIMURIUM, Strain/Indicator: TA98, Metabolic Activation: NONE, Method: STANDARD PLATE): inactive; negative; mutagenic call (Test System: AMES SALMONELLA TYPHIMURIUM, Strain/Indicator: TA98, Metabolic Activation: RAT, LIVER, S-9, AROCLOR 1254, Method: STANDARD PLATE): inactive; negative; mutagenic call (Test System: AMES SALMONELLA TYPHIMURIUM, Strain/Indicator: TA98, Metabolic Activation: RAT, LIVER, S-9, PHENOBARBITAL AND 5,6-BENZOFLAVONE, Method: PREINCUBATION): inactive; negative; mutagenic call (Test System: AMES SALMONELLA TYPHIMURIUM, Strain/Indicator: TA100, Metabolic Activation: HAMSTER, LIVER, S-9, AROCLOR 1254, Method: STANDARD PLATE): inactive; negative; mutagenic call (Test System: AMES SALMONELLA TYPHIMURIUM, Strain/Indicator: TA100, Metabolic Activation: NONE, Method: PREINCUBATION): inactive; negative; mutagenic call (Test System: AMES SALMONELLA TYPHIMURIUM, Strain/Indicator: TA100, Metabolic Activation: NONE, Method: STANDARD PLATE): inactive; negative; mutagenic call (Test System: AMES SALMONELLA TYPHIMURIUM, Strain/Indicator: TA100, Metabolic Activation: RAT, LIVER, S-9, AROCLOR 1254, Method: STANDARD PLATE): inactive; negative; mutagenic call (Test System: AMES SALMONELLA TYPHIMURIUM, Strain/Indicator: TA100, Metabolic Activation: RAT, LIVER, S-9, PHENOBARBITAL AND 5,6-BENZOFLAVONE, Method: PREINCUBATION): inactive; negative; mutagenic call (Test System: AMES SALMONELLA TYPHIMURIUM, Strain/Indicator: TA102, Metabolic Activation: NONE, Method: PREINCUBATION): inactive; negative; mutagenic call (Test System: AMES SALMONELLA TYPHIMURIUM, Strain/Indicator: TA102, Metabolic Activation: RAT, LIVER, S-9, PHENOBARBITAL AND 5,6-BENZOFLAVONE, Method: PREINCUBATION): inactive; negative; mutagenic call (Test System: AMES SALMONELLA TYPHIMURIUM, Strain/Indicator: TA104, Metabolic Activation: NONE, Method: PREINCUBATION): inactive; negative; mutagenic call (Test System: AMES SALMONELLA TYPHIMURIUM, Strain/Indicator: TA104, Metabolic Activation: RAT, LIVER, S-9, PHENOBARBITAL AND 5,6-BENZOFLAVONE, Method: PREINCUBATION): inactive; negative; mutagenic call (Test System: AMES SALMONELLA TYPHIMURIUM, Strain/Indicator: TA1535, Metabolic Activation: HAMSTER, LIVER, S-9, AROCLOR 1254, Method: STANDARD PLATE): inactive; negative; mutagenic call (Test System: AMES SALMONELLA TYPHIMURIUM, Strain/Indicator: TA1535, Metabolic Activation: NONE, Method: PREINCUBATION): inactive; negative; mutagenic call (Test System: AMES SALMONELLA TYPHIMURIUM, Strain/Indicator: TA1535, Metabolic Activation: NONE, Method: STANDARD PLATE): inactive; negative; mutagenic call (Test System: AMES SALMONELLA TYPHIMURIUM, Strain/Indicator: TA1535, Metabolic Activation: RAT, LIVER, S-9, AROCLOR 1254, Method: STANDARD PLATE): inactive; negative; mutagenic call (Test System: AMES SALMONELLA TYPHIMURIUM, Strain/Indicator: TA1535, Metabolic Activation: RAT, LIVER, S-9, PHENOBARBITAL AND 5,6-BENZOFLAVONE, Method: PREINCUBATION): inactive; negative; mutagenic call (Test System: AMES SALMONELLA TYPHIMURIUM, Strain/Indicator: TA1537, Metabolic Activation: HAMSTER, LIVER, S-9, AROCLOR 1254, Method: STANDARD PLATE): inactive; negative; mutagenic call (Test System: AMES SALMONELLA TYPHIMURIUM, Strain/Indicator: TA1537, Metabolic Activation: NONE, Method: PREINCUBATION): inactive; negative; mutagenic call (Test System: AMES SALMONELLA TYPHIMURIUM, Strain/Indicator: TA1537, Metabolic Activation: NONE, Method: STANDARD PLATE): inactive; negative; mutagenic call (Test System: AMES SALMONELLA TYPHIMURIUM, Strain/Indicator: TA1537, Metabolic Activation: RAT, LIVER, S-9, AROCLOR 1254, Method: STANDARD PLATE): inactive; negative; mutagenic call (Test System: AMES SALMONELLA TYPHIMURIUM, Strain/Indicator: TA1537, Metabolic Activation: RAT, LIVER, S-9, PHENOBARBITAL AND 5,6-BENZOFLAVONE, Method: PREINCUBATION): inactive; negative; mutagenic call (Test System: AMES SALMONELLA TYPHIMURIUM, Strain/Indicator: TA1538, Metabolic Activation: HAMSTER, LIVER, S-9, AROCLOR 1254, Method: STANDARD PLATE): inactive; negative; mutagenic call (Test System: AMES SALMONELLA TYPHIMURIUM, Strain/Indicator: TA1538, Metabolic Activation: NONE, Method: PREINCUBATION): inactive; negative; mutagenic call (Test System: AMES SALMONELLA TYPHIMURIUM, Strain/Indicator: TA1538, Metabolic Activation: NONE, Method: STANDARD PLATE): inactive; negative; mutagenic call (Test System: AMES SALMONELLA TYPHIMURIUM, Strain/Indicator: TA1538, Metabolic Activation: RAT, LIVER, S-9, AROCLOR 1254, Method: STANDARD PLATE): inactive; negative; mutagenic call (Test System: AMES SALMONELLA TYPHIMURIUM, Strain/Indicator: TA1538, Metabolic Activation: RAT, LIVER, S-9, PHENOBARBITAL AND 5,6-BENZOFLAVONE, Method: PREINCUBATION): inactive; negative; mutagenic call (Test System: AMES SALMONELLA TYPHIMURIUM, Strain/Indicator: TA2637, Metabolic Activation: NONE, Method: PREINCUBATION): inactive; negative; mutagenic call (Test System: AMES SALMONELLA TYPHIMURIUM, Strain/Indicator: TA2637, Metabolic Activation: RAT, LIVER, S-9, PHENOBARBITAL AND 5,6-BENZOFLAVONE, Method: PREINCUBATION): inactive; negative

**Q.** With `Nc1ccc(-c2cc(Cl)c(N)cc2[N+](=O)[O-])cc1Cl` as the compound, how does the mutagenic call (Test System: Ames Salmonella typhimurium, Strain/Indicator: TA98, Metabolic Activation: None, Method: Preincubation) read?
**A.** The mutagenic call was “active; positive. weak response”.

**Q.** And the mutagenic call (Test System: Ames Salmonella typhimurium, Strain/Indicator: TA98, Metabolic Activation: Rat, Liver, S-9, Phenobarbital and 5,6-benzoflavone, Method: Preincubation)?
**A.** The mutagenic call was “active; positive”.

**Q.** What about the mutagenic call [1] of the same compound?
**A.** Its mutagenic call is “inactive; negative”.

**Q.** And the mutagenic call (Test System: Ames Salmonella typhimurium, Strain/Indicator: TA100, Metabolic Activation: Rat, Liver, S-9, Phenobarbital and 5,6-benzoflavone, Method: Preincubation)?
**A.** The mutagenic call was “active; positive. weak response”.

**Q.** What about the mutagenic call (Test System: Ames Salmonella typhimurium, Strain/Indicator: YG1024, Metabolic Activation: None, Method: Preincubation) of the same compound?
**A.** Its mutagenic call is “active; positive”.

**Q.** And the mutagenic call (Test System: Ames Salmonella typhimurium, Strain/Indicator: YG1024, Metabolic Activation: Rat, Liver, S-9, Phenobarbital and 5,6-benzoflavone, Method: Preincubation)?
**A.** The mutagenic call was “active; positive”.

**Q.** And the mutagenic call (Test System: Ames Salmonella typhimurium, Strain/Indicator: YG1029, Metabolic Activation: None, Method: Preincubation)?
**A.** Its mutagenic call is “inactive; negative”.

**Q.** What about the mutagenic call (Test System: Ames Salmonella typhimurium, Strain/Indicator: YG1029, Metabolic Activation: Rat, Liver, S-9, Phenobarbital and 5,6-benzoflavone, Method: Preincubation) of the same compound?
**A.** Its mutagenic call is “active; positive. weak response”.

**Q.** Which mutagenic call (End Point: In vitro chromosomal aberrations, Test System: Chinese hamster lung (CHL/IU) cells, Metabolic Activation: Rat, Liver, S9, Phenobarbital and 5,6-benzoflavone) does the source give for `CC(C)C#N` here?
**A.** Its mutagenic call is “inactive; negative”.

**Q.** And the mutagenic call [1]?
**A.** The mutagenic call was “active; positive”.

**Q.** And the mutagenic call (Test System: Ames Salmonella typhimurium, Strain/Indicator: TA100, Metabolic Activation: Rat, Liver, S9, Sodium phenobarbital and 5,6-benzoflavone (10%), Method: Preincubation)?
**A.** The mutagenic call was “active; positive”.

**Q.** What about the mutagenic call (Test System: Ames Salmonella typhimurium, Strain/Indicator: TA1535, Metabolic Activation: None, Method: Preincubation) of the same compound?
**A.** The mutagenic call was “inactive; negative”.

**Q.** And the mutagenic call (Test System: Ames Salmonella typhimurium, Strain/Indicator: TA1537, Metabolic Activation: None, Method: Preincubation)?
**A.** The mutagenic call was “active; positive”.

**Q.** And the mutagenic call (Test System: E. coli, Strain/Indicator: WP2uvrA/pKM101, Metabolic Activation: None, Method: Preincubation)?
**A.** Its mutagenic call is “active; positive”.

**Q.** And the mutagenic call (Test System: E. coli, Strain/Indicator: WP2uvrA/pKM101, Metabolic Activation: Rat, Liver, S9, Sodium phenobarbital and 5,6-benzoflavone (10%), Method: Preincubation)?
**A.** Its mutagenic call is “active; positive”.
